This data set concerns GENE-TOX genotoxicity assays, various organisms and cells. The experiment in a line: GENE-TOX mutagenicity studies. The settings on record: for call: Assay Type: In vivo carcinogenicity studies, Assay Code: CCG+.
The mark [1] stands for this setting: Species/Cell Type: Human lymphocytes or leukocytes, Assay Type: Chromosome aberrations in vitro, Assay Code: CY7+, Evaluation Type: Evaluation A (Pre-1980).
The mark [2] stands for this setting: Species/Cell Type: Human lymphocytes, Assay Type: Sister-chromatid exchange (SCE) in vitro, Assay Code: SCL+D, Dose Response: With dose response, Evaluation Type: Evaluation B (Post-1980).
[3] abbreviates: Species/Cell Type: Nonhuman, Evaluation Type: Evaluation A (Pre-1980).
Where [4] appears, read: Species/Cell Type: Salmonella typhimurium (one or more of the five standard strains: TA98, TA100, TA1535, TA1537, and TA1538), Assay Type: Histidine reverse gene mutation, Ames assay, Assay Code: SAL+, Evaluation Type: Evaluation A (Pre-1980).
[5] abbreviates: Species/Cell Type: Drosophila melanogaster, Assay Type: Sex-linked recessive lethal gene mutation, Assay Code: SRL+, Evaluation Type: Evaluation A (Pre-1980).
[6] abbreviates: Species/Cell Type: Chinese hamster lung (V79) cells, Assay Type: Forward gene mutation at the HPRT or ouabain locus, Assay Code: V79-, Evaluation Type: Evaluation A (Pre-1980).
Where [7] appears, read: Species/Cell Type: Salmonella typhimurium (one or more of the five standard strains: TA98, TA100, TA1535, TA1537, and TA1538), Assay Type: Histidine reverse gene mutation, Ames assay, Assay Code: SALT, Evaluation Type: Evaluation A (Pre-1980).

Active and inactive are the calls of the source. How the calls were made is not given here.

For the compound `COc1cccc2c1C(=O)c1c(O)c3c(c(O)c1C2=O)C[C@@](O)(C(=O)CO)C[C@@H]3O[C@H]1C[C@H](N)[C@H](O)[C@H](C)O1`, the mutagenic call (Species/Cell Type: Chinese hamster lung (V79) cells, Assay Type: Forward gene mutation at the HPRT or ouabain locus, Assay Code: V79+, Evaluation Type: Evaluation A (Pre-1980)) is “active; positive”; the mutagenic call (Species/Cell Type: Chinese hamster ovary (CHO) cells, Assay Type: Forward gene mutation at the HPRT locus, Assay Code: CHO+, Evaluation Type: Evaluation B (Post-1980)) is “active; positive”; the mutagenic call (Species/Cell Type: Fischer rat embryo (RLV/1706) cells, Assay Type: Cell transformation, viral enhanced, Assay Code: CTR+, Evaluation Type: Evaluation A (Pre-1980)) was “active; positive”; the mutagenic call under setting [1] is “active; positive”; the mutagenic call under setting [2] was “active; positive”; the mutagenic call (Species/Cell Type: Human lymphocytes, Assay Type: Sister-chromatid exchange (SCE) in vivo, Assay Code: SCY+D, Dose Response: With dose response, Evaluation Type: Evaluation A (Pre-1980)) was “active; positive”. For the same compound, the mutagenic call (Species/Cell Type: Human, Assay Type: Sister-chromatid exchange (SCE) in vitro, Assay Code: SC1+D, Dose Response: With dose response, Evaluation Type: Evaluation A (Pre-1980)) is “active; positive”; the mutagenic call (Species/Cell Type: Human, Sex: Male, Assay Type: Sperm morphology, Assay Code: SPH+, Evaluation Type: Evaluation A (Pre-1980)) was “active; positive”; the mutagenic call (Species/Cell Type: Mammalian polychromatic erythrocytes, Assay Type: Micronucleus test, chromosome aberrations, Assay Code: MNT+, Evaluation Type: Evaluation A (Pre-1980)) is “active; positive”; the mutagenic call (Species/Cell Type: Mouse, Sex: Male, Assay Type: Sperm morphology, Assay Code: SPI+, Evaluation Type: Evaluation A (Pre-1980)) is “active; positive”; the mutagenic call (Species/Cell Type: Nonhuman, Assay Type: Sister-chromatid exchange (SCE) in vitro, Assay Code: SC2+D, Dose Response: With dose response, Evaluation Type: Evaluation A (Pre-1980)) was “active; positive”; the mutagenic call (Species/Cell Type: Nonhuman, Assay Type: Sister-chromatid exchange (SCE) in vivo, Assay Code: SC3+D, Dose Response: With dose response, Evaluation Type: Evaluation A (Pre-1980)) was “active; positive”. Under setting [4], the mutagenic call was “active; positive”. The call under setting [3] was “active; positive”.

As to `O=C(O)c1ccccc1`, the mutagenic call runs as follows: (Species/Cell Type: Escherichia coli WP2, Assay Type: Tryptophan reverse gene mutation, Assay Code: WP2-*, Activation: With metabolic activation, Evaluation Type: Evaluation A (Pre-1980)) “inactive; negative”; (Species/Cell Type: Escherichia coli WP2 UVRA, Assay Type: Tryptophan reverse gene mutation, Assay Code: WPU-*, Activation: With metabolic activation, Evaluation Type: Evaluation A (Pre-1980)) “inactive; negative”; (Species/Cell Type: Human, Assay Type: Sister-chromatid exchange (SCE) in vitro, Assay Code: SC1+, Evaluation Type: Evaluation B (Post-1980)) “active; positive”; (Species/Cell Type: Saccharomyces cerevisiae, Assay Type: Mitotic recombination or gene conversion, Assay Code: YEH-, Evaluation Type: Evaluation A (Pre-1980)) “inactive; negative”; (Species/Cell Type: Salmonella typhimurium (one or more of the five standard strains: TA98, TA100, TA1535, TA1537, and TA1538), Assay Type: Histidine reverse gene mutation, Ames assay, Assay Code: SAL-, Evaluation Type: Evaluation A (Pre-1980)) “inactive; negative”.

Regarding `ClCC1CO1` (stereo not given), the mutagenic call is, setting by setting: under setting [5], “active; positive”; (Species/Cell Type: Escherichia coli polA (W3119 vs P3478), Assay Type: Rec-assay, DNA effects (bacterial DNA repair), Assay Code: RE1+, Evaluation Type: Evaluation A (Pre-1980)) “active; positive”; under setting [1], “active; positive”; (Species/Cell Type: Human lymphocytes or leukocytes, Assay Type: Chromosome aberrations in vivo, Assay Code: CY8+, Evaluation Type: Evaluation A (Pre-1980)) “active; positive”; under setting [2], “active; positive”; (Species/Cell Type: Human, Assay Type: Sister-chromatid exchange (SCE) in vitro, Assay Code: SC1+D, Dose Response: With dose response, Evaluation Type: Evaluation B (Post-1980)) “active; positive”. Besides, the mutagenic call is, setting by setting: (Species/Cell Type: Human, Sex: Male, Assay Type: Sperm morphology, Assay Code: SPH-, Evaluation Type: Evaluation A (Pre-1980)) “inactive; negative”; (Species/Cell Type: Mammalian polychromatic erythrocytes, Assay Type: Micronucleus test, chromosome aberrations, Assay Code: MNTT, Evaluation Type: Evaluation A (Pre-1980)) “no conclusion”; (Species/Cell Type: Mouse, Sex: Male, Assay Type: Sperm morphology, Assay Code: SPI-, Evaluation Type: Evaluation A (Pre-1980)) “inactive; negative”; (Species/Cell Type: Neurospora crassa, Assay Type: Forward gene mutation, Assay Code: NEF+, Evaluation Type: Evaluation A (Pre-1980)) “active; positive”; (Species/Cell Type: Neurospora crassa, Assay Type: Reverse gene mutation, Assay Code: NER+, Evaluation Type: Evaluation A (Pre-1980)) “active; positive”; (Species/Cell Type: Nonhuman, Assay Type: Sister-chromatid exchange (SCE) in vitro, Assay Code: SC2+D, Dose Response: With dose response, Evaluation Type: Evaluation B (Post-1980)) “active; positive”. Also, the mutagenic call runs as follows: under setting [4], “active; positive”; (Species/Cell Type: Schizosaccharomyces pombe, Assay Type: Forward gene mutation, Assay Code: YEY+, Evaluation Type: Evaluation A (Pre-1980)) “active; positive”; (Species/Cell Type: Schizosaccharomyces pombe, Assay Type: Reverse gene mutation, Assay Code: YEZ+, Evaluation Type: Evaluation A (Pre-1980)) “active; positive”. Further, the call under setting [3] was “active; positive”.

As for `O=c1c(=O)c2cc3ccccc3c3ccc4cccc1c4c23`, the mutagenic call is “inactive; negative” under setting [6] and “no conclusion” under setting [7].

For `Cc1cc(O)c2c(c1O)C(=O)c1cc(O)cc(O)c1C2=O`, the mutagenic call under setting [4] was “active; positive”.

For `CCOC(=O)N(CCO)N=O`, the mutagenic call under setting [4] was “active; positive”.

Turning to `N[C@H](Cc1ccc(N(CCCl)CCCl)cc1)C(=O)O`, the mutagenic call under setting [5] was “active; positive”.

On to `OC[C@@H](O)[C@@H](O[C@H]1O[C@H](CO)[C@@H](O)[C@H](O)[C@H]1O)[C@H](O)[C@@H](O)CO`, for which the mutagenic call (Species/Cell Type: Mammalian polychromatic erythrocytes, Assay Type: Micronucleus test, chromosome aberrations, Assay Code: MNT-, Evaluation Type: Evaluation B (Post-1980)) is “inactive; negative”.

With `CCn1c(=O)n(C)c2c(=O)n(C)c(=O)n(C)c21`, for the setting “Species/Cell Type: Allium cepa, Assay Type: Chromosome aberrations, Assay Code: ALC+D, Dose Response: With dose response, Evaluation Type: Evaluation A (Pre-1980)”, the mutagenic call was “active; positive”.

As to `Cc1ccc(C(C)C)c(O)c1`, the mutagenic call reads like this: (Species/Cell Type: Allium cepa, Assay Type: Chromosome aberrations, Assay Code: ALC-, Evaluation Type: Evaluation A (Pre-1980)) “inactive; negative”; (Species/Cell Type: Drosophila melanogaster, Assay Type: Sex-linked recessive lethal gene mutation, Assay Code: SRLT, Evaluation Type: Evaluation A (Pre-1980)) “no conclusion”.

Take `COc1ccc(CCC(=O)c2c(O)cc(O)cc2O)cc1O`: the mutagenic call (Species/Cell Type: Mammalian polychromatic erythrocytes, Assay Type: Micronucleus test, chromosome aberrations, Assay Code: MNTT, Evaluation Type: Evaluation B (Post-1980)) is given as “no conclusion”.

Turning to `O=C(O)C(F)(F)F`, the mutagenic call under setting [7] is “no conclusion”.

`O[C@@H]1C=Cc2cc3ccc4cccc5ccc(c2[C@@H]1O)c3c45`: the mutagenic call was “inactive; negative” under setting [6] and “no conclusion” under setting [7].

With `CC(=O)Nc1ccc(CC(=O)c2ccccc2)cc1`, the mutagenic call under setting [7] is on record as “no conclusion”.

On to `Nc1nc(/C=C/c2ccc([N+](=O)[O-])o2)cs1`, for which, under setting [4], the mutagenic call was “active; positive”.

The values are drawn from PubChem BioAssay AID1259408 (Genetic Toxicology Data Bank (GENE-TOX), 2018).
